pEC50: −log10 of the molar value. Numbered stars: 1 amine (or outer) side, 2 acyl side, 3 side chain; on linkers, the order of the positions; unused ones are H or OH. Bridge positions count the residues as written; N and C are the ends. Square brackets hold non-standard residues; d marks the D form. Side chains are listed from the residue outwards. Peptide text beside a SMILES is read from it. I, II: the chains in the order shown. * marks the point of attachment. C18 diacid = O=C(O)CCCCCCCCCCCCCCCCC(=O)*; γGlu = O=C(O)[C@H](CCC(=O)[*:2])N[*:1]; Ac4c = NC1(C(=O)O)CCC1; AEEA = NCCOCCOCC(=O)O; Aib = CC(C)(N)C(=O)O
Molecular target: T1, human glucagon receptor (Homo sapiens, UniProt P47871)
T1 construct: expressed in transfected cells; host or cells: BHK cells (parent BHK570, CRE luciferase clone BHK/KZ10-20-48), clone pLJ6'-4-25
T1 sequence (P47871 26-477): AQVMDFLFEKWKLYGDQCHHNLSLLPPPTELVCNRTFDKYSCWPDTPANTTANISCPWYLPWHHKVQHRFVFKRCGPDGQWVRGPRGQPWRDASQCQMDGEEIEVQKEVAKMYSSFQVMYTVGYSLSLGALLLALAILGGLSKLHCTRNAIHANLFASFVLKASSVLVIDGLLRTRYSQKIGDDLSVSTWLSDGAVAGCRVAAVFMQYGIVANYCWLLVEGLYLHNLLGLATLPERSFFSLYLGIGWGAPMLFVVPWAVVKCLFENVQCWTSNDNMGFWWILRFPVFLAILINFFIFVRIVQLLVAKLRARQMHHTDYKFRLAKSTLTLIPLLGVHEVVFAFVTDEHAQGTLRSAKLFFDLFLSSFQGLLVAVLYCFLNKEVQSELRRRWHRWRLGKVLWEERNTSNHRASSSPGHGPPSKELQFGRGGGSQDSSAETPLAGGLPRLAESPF
Experiment: Glucagon receptor potency, CRE luciferase reporter gene assay in BHK cells
Type: cell-based
Settings: BHK cells expressing human glucagon receptor, read-out: EC50 GlucR
In short: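 EC50 (pM) comes from a four-parameter fit of luciferase luminescence after 3 h at 37 °C with compound at final 1×10EE-13–1×10EE-6 M. Cells: BHK570-derived line carrying human glucagon receptor plus CRE-luciferase, 5×10EE3/well, in assay medium with 2% ovalbumin, 0.2% Pluronic F-68.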

pEC50 | Structure (SMILES)
11.40 | CC(C)C[C@H](NC(=O)[C@H](Cc1ccc(O)cc1)NC(=O)[C@H](CCCCN)NC(=O)[C@H](CO)NC(=O)[C@H](CC(C)C)NC(=O)[C@H](CC(=O)O)NC(=O)[C@H](CO)NC(=O)[C@@H](NC(=O)[C@H](Cc1ccccc1)NC(=O)[C@@H](NC(=O)CNC(=O)[C@H](CCC(N)=O)NC(=O)C1(NC(=O)[C@@H](N)Cc2c[nH]cn2)CCC1)[C@@H](C)O)[C@@H](C)O)C(=O)N[C@@H](CCC(=O)O)C(=O)N[C@@H](CO)C(=O)N[C@@H](CCCCN)C(=O)N[C@@H](CCCNC(=N)N)C(=O)N[C@@H](C)C(=O)N[C@@H](CCCNC(=N)N)C(=O)N[C@@H](CCC(=O)O)C(=O)N[C@@H](Cc1ccccc1)C(=O)N[C@H](C(=O)N[C@@H](CCC(N)=O)C(=O)N[C@@H](Cc1c[nH]c2ccccc12)C(=O)N[C@@H](CC(C)C)C(=O)N[C@@H](CC(C)C)C(=O)N[C@@H](CCCCNC(=O)CNC(=O)[C@H](CO)NC(=O)[C@H](CCC(=O)O)NC(=O)CNC(=O)[C@H](CO)NC(=O)CC[C@H](NC(=O)CC[C@H](NC(=O)CCCCCCCCCCCCCCCCC(=O)O)C(=O)O)C(=O)O)C(=O)N[C@H](C(N)=O)[C@@H](C)O)C(C)C [Example 36, N^ε28-[2-[[(2S)-2-[[(2S)-4-carboxy-2-[[2-[[(2S)-2-[[(4S)-4-carboxy-4-[[(4S)-4-carboxy-4-(17-carboxyheptadecanoylamino)butanoyl]amino]butanoyl]amino]-3-hydroxypropanoyl]amino]acetyl]amino]butanoyl]amino]-3-hydroxypropanoyl]amino]acetyl]-[Acb2,Leu10,Glu15,Lys17, Arg20,Glu21,Leu27,Lys28]-Glucagon amide] (I: H-H[Ac4c]QGTFTSDLSKYLESKRAREFVQWLLKT-NH2 / II: {C18 diacid-γGlu-γGlu}-SGESG; amide I:28-II:C; N-terminus assumed)
11.70 | CC(C)C[C@H](NC(=O)[C@H](Cc1ccc(O)cc1)NC(=O)[C@H](CCCCN)NC(=O)[C@H](CO)NC(=O)[C@H](CC(C)C)NC(=O)[C@H](CC(=O)O)NC(=O)[C@H](CO)NC(=O)[C@@H](NC(=O)[C@H](Cc1ccccc1)NC(=O)[C@@H](NC(=O)CNC(=O)[C@H](Cc1c[nH]cn1)NC(=O)C(C)(C)NC(=O)[C@@H](N)Cc1c[nH]cn1)[C@@H](C)O)[C@@H](C)O)C(=O)N[C@@H](CCC(=O)O)C(=O)N[C@@H](CO)C(=O)N[C@@H](CCCNC(=N)N)C(=O)N[C@@H](CCCNC(=N)N)C(=O)N[C@@H](C)C(=O)N[C@@H](CCCNC(=N)N)C(=O)N[C@@H](CC(=O)O)C(=O)N[C@@H](Cc1ccccc1)C(=O)N[C@H](C(=O)N[C@@H](CCC(N)=O)C(=O)N[C@@H](Cc1c[nH]c2ccccc12)C(=O)N[C@@H](CC(C)C)C(=O)N[C@@H](CC(C)C)C(=O)N[C@@H](CCCCNC(=O)CNC(=O)[C@H](CO)NC(=O)[C@H](CCC(=O)O)NC(=O)CNC(=O)[C@H](CO)NC(=O)CC[C@H](NC(=O)CC[C@H](NC(=O)CCCCCCCCCCCCCCCCC(=O)O)C(=O)O)C(=O)O)C(=O)N[C@H](C(N)=O)[C@@H](C)O)C(C)C [Example 37, N^ε28-[2-[[(2S)-2-[[(2S)-4-carboxy-2-[[2-[[(2S)-2-[[(4S)-4-carboxy-4-[[(4S)-4-carboxy-4-(17-carboxyheptadecanoylamino)butanoyl]amino]butanoyl]amino]-3-hydroxypropanoyl]amino]acetyl]amino]butanoyl]amino]-3-hydroxypropanoyl]amino]acetyl]-[Aib2,His3,Leu10,Glu15, Arg20,Leu27,Lys28]-Glucagon amide] (I: H-H[Aib]HGTFTSDLSKYLESRRARDFVQWLLKT-NH2 / II: {C18 diacid-γGlu-γGlu}-SGESG; amide I:28-II:C; N-terminus assumed)
10.54 | CC(C)C[C@H](NC(=O)[C@H](Cc1ccc(O)cc1)NC(=O)[C@H](CCCCN)NC(=O)[C@H](CO)NC(=O)[C@H](CC(C)C)NC(=O)[C@H](CC(=O)O)NC(=O)[C@H](CO)NC(=O)[C@@H](NC(=O)[C@H](Cc1ccccc1)NC(=O)[C@@H](NC(=O)CNC(=O)[C@H](CCC(N)=O)NC(=O)C(C)(C)NC(=O)[C@@H](N)Cc1c[nH]cn1)[C@@H](C)O)[C@@H](C)O)C(=O)N[C@@H](CCC(=O)O)C(=O)N[C@@H](CO)C(=O)N[C@@H](CCCNC(=N)N)C(=O)N[C@@H](CCCNC(=N)N)C(=O)N[C@@H](C)C(=O)N[C@@H](CCCNC(=N)N)C(=O)N[C@@H](CCC(=O)O)C(=O)N[C@@H](Cc1ccccc1)C(=O)N[C@H](C(=O)N[C@@H](CCC(N)=O)C(=O)N[C@@H](Cc1c[nH]c2ccccc12)C(=O)N[C@@H](CC(C)C)C(=O)N[C@@H](CC(C)C)C(=O)N[C@@H](CCCCNC(=O)CC[C@H](NC(=O)CC[C@H](NC(=O)CC[C@H](NC(=O)CCCCCCCCCCCCCCCCC(=O)O)C(=O)O)C(=O)O)C(=O)O)C(=O)N[C@H](C(N)=O)[C@@H](C)O)C(C)C [Example 41, N^ε28-[(4S)-4-carboxy-4-[[(4S)-4-carboxy-4-[[(4S)-4-carboxy-4-(17-carboxyheptadecanoylamino)butanoyl]amino]butanoyl]amino]butanoyl]-[Aib2,Leu10,Glu15, Arg20,Glu21,Leu27,Lys28]-Glucagon amide] (H-H[Aib]QGTFTSDLSKYLESRRAREFVQWLLK([γGlu-γGlu-γGlu-C18 diacid])T-NH2; N-terminus assumed)
10.49 | CC(C)C[C@H](NC(=O)[C@H](Cc1ccc(O)cc1)NC(=O)[C@H](CCCCN)NC(=O)[C@H](CO)NC(=O)[C@H](CC(C)C)NC(=O)[C@H](CC(=O)O)NC(=O)[C@H](CO)NC(=O)[C@@H](NC(=O)[C@H](Cc1ccccc1)NC(=O)[C@@H](NC(=O)CNC(=O)[C@H](CCC(N)=O)NC(=O)C(C)(C)NC(=O)[C@@H](N)Cc1c[nH]cn1)[C@@H](C)O)[C@@H](C)O)C(=O)N[C@@H](CCC(=O)O)C(=O)N[C@@H](CO)C(=O)N[C@@H](CCCNC(=N)N)C(=O)N[C@@H](CCCNC(=N)N)C(=O)N[C@@H](C)C(=O)N[C@@H](CCCNC(=N)N)C(=O)N[C@@H](CCC(=O)O)C(=O)N[C@@H](Cc1ccccc1)C(=O)N[C@H](C(=O)N[C@@H](CCC(N)=O)C(=O)N[C@@H](Cc1c[nH]c2ccccc12)C(=O)N[C@@H](CC(C)C)C(=O)N[C@@H](CC(C)C)C(=O)N[C@@H](CCCCNC(=O)COCCOCCNC(=O)COCCOCCNC(=O)CC[C@H](NC(=O)CC[C@H](NC(=O)CC[C@H](NC(=O)CCCCCCCCCCCCCCCCC(=O)O)C(=O)O)C(=O)O)C(=O)O)C(=O)N[C@H](C(N)=O)[C@@H](C)O)C(C)C [Example 42, N^ε28-[2-[2-[2-[[2-[2-[2-[[(4S)-4-carboxy-4-[[(4S)-4-carboxy-4-[[(4S)-4-carboxy-4-(17-carboxyheptadecanoylamino)butanoyl]amino]butanoyl]amino]butanoyl]amino]ethoxy]ethoxy]acetyl]amino]ethoxy]ethoxy]acetyl]-[Aib2,Leu10,Glu15,Arg20,Glu21,Leu27,Lys28]-Glucagon amide] (H-H[Aib]QGTFTSDLSKYLESRRAREFVQWLLK([AEEA-AEEA-γGlu-γGlu-γGlu-C18 diacid])T-NH2; N-terminus assumed)
11.70 | CC(C)C[C@H](NC(=O)[C@H](Cc1ccc(O)cc1)NC(=O)[C@H](CCCCN)NC(=O)[C@H](CO)NC(=O)[C@H](CC(C)C)NC(=O)[C@H](CC(=O)O)NC(=O)[C@H](CO)NC(=O)[C@@H](NC(=O)[C@H](Cc1ccccc1)NC(=O)[C@@H](NC(=O)CNC(=O)[C@H](CCC(N)=O)NC(=O)C(C)(C)NC(=O)[C@@H](N)Cc1c[nH]cn1)[C@@H](C)O)[C@@H](C)O)C(=O)N[C@@H](CC(=O)O)C(=O)N[C@@H](C)C(=O)N[C@@H](CCCNC(=N)N)C(=O)N[C@@H](CCCNC(=N)N)C(=O)N[C@@H](C)C(=O)N[C@@H](CCCNC(=N)N)C(=O)N[C@@H](CCC(=O)O)C(=O)N[C@@H](Cc1ccccc1)C(=O)N[C@H](C(=O)N[C@@H](CCC(N)=O)C(=O)N[C@@H](Cc1c[nH]c2ccccc12)C(=O)N[C@@H](CC(C)C)C(=O)N[C@@H](CC(C)C)C(=O)N[C@@H](CCCCNC(=O)CC[C@H](NC(=O)CC[C@H](NC(=O)COCCOCCNC(=O)COCCOCCNC(=O)CC[C@H](NC(=O)CCCCCCCCCCCCCCCCC(=O)O)C(=O)O)C(=O)O)C(=O)O)C(=O)N[C@H](C(N)=O)[C@@H](C)O)C(C)C [Example 43, N^ε28-[(4S)-4-carboxy-4-[[(4S)-4-carboxy-4-[[2-[2-[2-[[2-[2-[2-[[(4S)-4-carboxy-4-(17-carboxyheptadecanoylamino)butanoyl]amino]ethoxy]ethoxy]acetyl]amino]ethoxy]ethoxy]acetyl]amino]butanoyl]amino]butanoyl]-[Aib2,Leu10,Ala16,Arg20,Glu21,Leu27,Lys28]-Glucagon amide] (H-H[Aib]QGTFTSDLSKYLDARRAREFVQWLLK([γGlu-γGlu-AEEA-AEEA-γGlu-C18 diacid])T-NH2; N-terminus assumed)
